# Read-outs that look alike come from different tables or passages of the source.
# Assays:
# JAK1 = JAK1 (Homo sapiens (Human), UniProt P23458); experiment: LanthaScreen JAK biochemical assay (JAK1)
# Tyk2 = Tyk2 (Homo sapiens (Human), UniProt P29597); experiment: LanthaScreen JAK biochemical assay (Tyk2)
# [1] = system: IL-13 induced STAT6 phosphorylation in BEAS-2B human lung epithelial cells; experiment: AlphaScreen cellular JAK potency assay, BEAS-2B
# JAK3 = JAK3 (Homo sapiens (Human), UniProt P52333); experiment: LanthaScreen JAK biochemical assay (JAK3)
# JAK2 = JAK2 (Homo sapiens (Human), UniProt O60674); experiment: LanthaScreen JAK biochemical assay (JAK2)
# [2] = system: IL-4 induced STAT6 phosphorylation in THP-1 human monocytic cells; experiment: Cellular JAK potency assay, THP-1
# [3] = system: oxazolone-induced colitis; experiment: Mouse model of oxazolone-induced colitis; format: in vivo, BALB/C mice; conditions: mouse, PO, 1, 3, and/or 10 mg/kg BID
# Description: Assay 7: Mouse Model of Oxazalone-Induced Colitis
# Oxazolone-induced colitis is an experimental model that has a histological resemblance to human ulcerative colitis (Heller et al. Immunology, 2002, 17, 629-638). Adult BALB/C mice from Harlan were used in the assay. On day 1, animals were lightly anesthetized with isoflurane and the hairs between the shoulder were carefully removed before oxazolone (4%, 150 μL, 4:1 acetone:olive oil formulation) or vehicle solution was slowly applied for skin sensitization. Seven days after skin sensitization, the mice were fasted overnight, anesthetized with isoflurane inhalation, and a 1 mL syringe equipped with a 3.5-F catheter, filled with oxazolone solution, was inserted carefully about 4 cm into the colon of the mouse. Following insertion, 50 μL of the oxazolone solution (1%, 1:1 ethanol:water formulation) was injected very slowly (over 30 sec using an injection pump) into the colon. The catheter was removed and the mice were held vertically (head down) for 2 min to ensure that the entire oxazolone solution remained inside the colon. Drug treatment (PO, BID or TID) or vehicle was initiated a day prior to the oxazolone intrarectal (IR) challenge. Two-day post oxazolone intrarectal challenge, the Disease Activity Index (DAI) was assessed by treatment-blinded experimenters for each mouse according to the criteria score: stool consistency score (0, normal; 2, loose; 4, diarrhea), gross bleeding score (0, absence; 2, blood tinged; 4, presence), and weight loss score (0, none; 1, 1%-5%; 2, 5%-10%; 3, 10%-20%; 4, more than 20%); DAI=average of (stool consistency score+gross bleeding score+weight loss score).
# Selected compounds of the invention were tested in the assay. Efficacy in the model is evidenced by a decrease in DAI score as compared with the score from vehicle treated animals.
# [4] = IL-13 induced STAT6 phosphorylation, BEAS-2B cells
# [5] = BEAS-2B cells, IL-13 induced STAT6 phosphorylation
# [6] = Homo sapiens, THP-1, read-out: THP-1 IL4 pIC50 (converted)
# [7] = read-out: JAK 2 (pKi) (converted)
# [8] = IL-4 induced STAT6 phosphorylation, THP-1 cells
# [9] = read-out: JAK 1 (pKi) (converted)
# [10] = Homo sapiens, BEAS-2B, read-out: BEAS2B pIC50 (converted)
# [11] = THP-1 cells, IL-4 induced STAT6 phosphorylation
# Chain of Tyk2 (P29597 whole entry): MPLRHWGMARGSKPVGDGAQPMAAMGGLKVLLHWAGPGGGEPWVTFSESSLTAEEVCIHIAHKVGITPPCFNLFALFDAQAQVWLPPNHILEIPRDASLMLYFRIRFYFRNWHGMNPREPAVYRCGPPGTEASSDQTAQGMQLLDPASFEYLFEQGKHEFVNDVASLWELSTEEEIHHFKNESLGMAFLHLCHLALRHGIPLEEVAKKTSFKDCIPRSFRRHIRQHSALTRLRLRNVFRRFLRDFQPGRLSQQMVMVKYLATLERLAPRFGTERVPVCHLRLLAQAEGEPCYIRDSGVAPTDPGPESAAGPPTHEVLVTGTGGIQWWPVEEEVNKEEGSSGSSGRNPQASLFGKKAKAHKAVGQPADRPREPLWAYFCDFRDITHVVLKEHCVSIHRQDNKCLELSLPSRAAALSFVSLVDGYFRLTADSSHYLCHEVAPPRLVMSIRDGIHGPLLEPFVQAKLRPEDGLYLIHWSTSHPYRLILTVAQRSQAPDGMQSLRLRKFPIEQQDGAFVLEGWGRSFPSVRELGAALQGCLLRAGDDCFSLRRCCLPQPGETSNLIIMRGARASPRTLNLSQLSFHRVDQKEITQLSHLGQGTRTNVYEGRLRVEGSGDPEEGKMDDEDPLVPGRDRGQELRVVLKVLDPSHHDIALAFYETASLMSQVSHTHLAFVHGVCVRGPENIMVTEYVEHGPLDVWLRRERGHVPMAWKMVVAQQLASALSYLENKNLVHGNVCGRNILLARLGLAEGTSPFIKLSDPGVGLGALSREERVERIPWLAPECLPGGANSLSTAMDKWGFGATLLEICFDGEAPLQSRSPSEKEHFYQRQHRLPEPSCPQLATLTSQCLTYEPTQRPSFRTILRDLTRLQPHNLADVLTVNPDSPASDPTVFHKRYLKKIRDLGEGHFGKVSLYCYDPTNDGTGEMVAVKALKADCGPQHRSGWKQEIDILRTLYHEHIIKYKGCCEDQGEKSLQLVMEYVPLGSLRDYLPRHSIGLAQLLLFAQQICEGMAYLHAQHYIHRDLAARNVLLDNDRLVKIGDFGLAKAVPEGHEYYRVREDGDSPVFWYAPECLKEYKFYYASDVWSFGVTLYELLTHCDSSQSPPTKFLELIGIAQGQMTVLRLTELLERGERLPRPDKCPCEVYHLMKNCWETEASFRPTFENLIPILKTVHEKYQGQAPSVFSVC
# Chain of JAK2 (O60674 whole entry): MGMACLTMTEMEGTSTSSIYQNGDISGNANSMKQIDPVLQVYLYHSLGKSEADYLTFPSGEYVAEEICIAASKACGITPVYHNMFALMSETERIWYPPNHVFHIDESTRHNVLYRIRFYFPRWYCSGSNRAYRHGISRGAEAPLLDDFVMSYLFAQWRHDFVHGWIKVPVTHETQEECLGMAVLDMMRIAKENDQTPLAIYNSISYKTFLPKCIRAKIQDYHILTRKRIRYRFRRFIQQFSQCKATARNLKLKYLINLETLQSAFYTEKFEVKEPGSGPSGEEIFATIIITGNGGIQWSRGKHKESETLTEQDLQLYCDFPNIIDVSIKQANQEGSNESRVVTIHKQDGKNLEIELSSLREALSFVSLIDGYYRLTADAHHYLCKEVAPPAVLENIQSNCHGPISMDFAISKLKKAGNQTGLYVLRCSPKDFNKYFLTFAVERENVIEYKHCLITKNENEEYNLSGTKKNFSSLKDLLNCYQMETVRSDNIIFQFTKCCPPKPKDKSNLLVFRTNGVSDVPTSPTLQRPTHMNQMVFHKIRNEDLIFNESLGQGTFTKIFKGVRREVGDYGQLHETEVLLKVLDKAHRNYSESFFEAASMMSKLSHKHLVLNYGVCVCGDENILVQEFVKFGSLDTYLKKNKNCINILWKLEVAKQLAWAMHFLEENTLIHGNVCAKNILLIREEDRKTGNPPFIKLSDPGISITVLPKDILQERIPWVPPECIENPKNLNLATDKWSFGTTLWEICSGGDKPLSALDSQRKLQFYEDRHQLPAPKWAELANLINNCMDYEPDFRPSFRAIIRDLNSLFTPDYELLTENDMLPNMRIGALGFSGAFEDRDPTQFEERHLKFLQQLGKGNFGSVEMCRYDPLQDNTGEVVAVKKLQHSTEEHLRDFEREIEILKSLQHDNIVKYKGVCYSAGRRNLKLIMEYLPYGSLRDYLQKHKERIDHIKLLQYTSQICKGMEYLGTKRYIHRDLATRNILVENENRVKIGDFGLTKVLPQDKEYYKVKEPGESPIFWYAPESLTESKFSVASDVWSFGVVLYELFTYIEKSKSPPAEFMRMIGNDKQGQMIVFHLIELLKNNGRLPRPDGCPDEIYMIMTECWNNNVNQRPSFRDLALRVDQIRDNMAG
# Chain of JAK1 (P23458 whole entry): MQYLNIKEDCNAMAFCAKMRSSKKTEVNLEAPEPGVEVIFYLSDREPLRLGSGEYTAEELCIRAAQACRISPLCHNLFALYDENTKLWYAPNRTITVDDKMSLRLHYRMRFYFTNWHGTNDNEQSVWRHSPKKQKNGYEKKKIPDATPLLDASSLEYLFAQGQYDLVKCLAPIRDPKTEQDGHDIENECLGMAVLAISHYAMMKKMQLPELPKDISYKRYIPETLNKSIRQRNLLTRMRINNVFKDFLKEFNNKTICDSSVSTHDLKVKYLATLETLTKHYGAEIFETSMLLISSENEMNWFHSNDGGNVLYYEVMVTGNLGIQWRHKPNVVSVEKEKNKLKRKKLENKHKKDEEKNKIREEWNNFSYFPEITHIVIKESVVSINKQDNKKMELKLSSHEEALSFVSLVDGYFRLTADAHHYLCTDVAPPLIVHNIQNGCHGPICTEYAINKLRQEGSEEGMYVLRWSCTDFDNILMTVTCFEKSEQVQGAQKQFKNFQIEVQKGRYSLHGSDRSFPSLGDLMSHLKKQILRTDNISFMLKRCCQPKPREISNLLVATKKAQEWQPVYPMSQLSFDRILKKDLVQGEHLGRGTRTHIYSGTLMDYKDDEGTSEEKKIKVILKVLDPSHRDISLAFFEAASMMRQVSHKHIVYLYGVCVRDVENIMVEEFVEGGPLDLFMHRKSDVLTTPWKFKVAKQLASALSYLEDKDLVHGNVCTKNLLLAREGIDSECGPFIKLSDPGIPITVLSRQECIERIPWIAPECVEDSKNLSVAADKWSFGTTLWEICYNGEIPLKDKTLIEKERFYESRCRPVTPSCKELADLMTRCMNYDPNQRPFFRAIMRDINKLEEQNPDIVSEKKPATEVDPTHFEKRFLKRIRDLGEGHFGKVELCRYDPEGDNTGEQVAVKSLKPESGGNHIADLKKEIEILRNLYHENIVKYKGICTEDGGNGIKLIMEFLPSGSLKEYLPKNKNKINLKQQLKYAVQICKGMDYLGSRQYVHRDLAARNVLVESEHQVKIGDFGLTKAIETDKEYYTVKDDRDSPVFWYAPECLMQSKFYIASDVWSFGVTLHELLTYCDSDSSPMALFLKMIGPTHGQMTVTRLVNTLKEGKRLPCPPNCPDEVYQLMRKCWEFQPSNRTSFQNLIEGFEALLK
SMILES,JAK 1 (pKi) (JAK1),"BEAS2B pIC50 [1, 4]",JAK 2 (pKi) (JAK2),"IC50 [2, 6] [nM]",decrease in DAI score as compared with vehicle treated animals [3],other results
Cc1cc(Nc2cc3ncccc3c(N[C@@H]3C[C@H]4CCC[C@@H](C3)N4C(=O)OCC3CC3)n2)n[nH]1 [Example 3-10],B (B represents a pKi value between 9 and 10 (Ki between 1 nM and 0.1 nM)),B (B represents a pEC50 value between 6.7 and 7.5 (EC50 between 200 nM and 32 nM)),B (B represents a pKi value between 9 and 10 (Ki between 1 nM and 0.1 nM)),–,–,Tyk 2 (pKi) (Tyk2): B (B represents a pKi value between 9 and 10 (Ki between 1 nM and 0.1 nM)); JAK 3 (pKi) (JAK3): C (C represents a pKi value between 7 and 9 (Ki between 100 nM and 1 nM))
COc1cnc2cc(Nc3cc(C)[nH]n3)nc(N[C@@H]3C[C@H]4CC[C@@H](C3)N4S(=O)(=O)CCC#N)c2c1 [Example 6-22],B (B represents a pKi value between 9 and 10 (Ki between 1 nM and 0.1 nM)),–,B (B represents a pKi value between 9 and 10 (Ki between 1 nM and 0.1 nM)),–,–,"Tyk 2 (pKi) (Tyk2): B (B represents a pKi value between 9 and 10 (Ki between 1 nM and 0.1 nM)); BEAS2B pIC50 [1, 5]: B (B represents a pEC50 value between 6.7 and 7.5 (EC50 between 200 nM and 32 nM)); JAK 3 (pKi) (JAK3): C (C represents a pKi value between 7 and 9 (Ki between 100 nM and 1 nM))"
"Cc1cc(Nc2cc3ncccc3c(N[C@@H]3C[C@H]4CCC[C@@H](C3)N4C(=O)CN(C)C)n2)n[nH]1 [Example 4, 2-(Dimethylamino)-1-((1R,3s,5S)-3-((7-((5-methyl-1H-pyrazol-3-yl)amino)-1,6-naphthyridin-5-yl)amino)-9-azabicyclo[3.3.1]nonan-9-yl)ethan-1-one]",–,–,–,31.6 to 200,statistically significant decrease,Ki (JAK1): 0.1 to 1 nM; Ki (JAK2; [7]): 0.1 to 1 nM
Cc1cc(Nc2cc3ncccc3c(N[C@@H]3C[C@H]4CCC[C@@H](C3)N4S(=O)(=O)CC3CC3)n2)n[nH]1 [Example 4-23],–,A (A represents a pEC50 value≥7.5 (EC50≤32 nM)),–,–,did not exhibit a statistically significant decrease,"THP-1 IL4 pIC50 [2, 8]: A (A represents a pEC50 value≥7.5 (EC50≤32 nM))"
"Cc1cc(Nc2cc3ncccc3c(N[C@@H]3C[C@H]4CC[C@@H](C3)N4S(=O)(=O)c3cccnc3)n2)n[nH]1 [Example 3, N^7-(5-methyl-1H-pyrazol-3-yl)-N^5-((1R,3s,5S)-8-(pyridin-3-ylsulfonyl)-8-azabicyclo[3.2.1]octan-3-yl)-1,6-naphthyridine-5,7-diamine]",–,–,–,31.6 to 200,statistically significant decrease,"Ki (JAK1; [9]): 0.1 to 1 nM; IC50 [1, 10]: < 31.6 nM; Ki (JAK2; [7]): 0.1 to 1 nM"
Cc1cc(Nc2nc(N[C@@H]3C[C@H]4CCC[C@@H](C3)N4S(=O)(=O)c3ccccc3)c3cccnc3c2F)n[nH]1 [Example 8-11],B (B represents a pKi value between 9 and 10 (Ki between 1 nM and 0.1 nM)),–,B (B represents a pKi value between 9 and 10 (Ki between 1 nM and 0.1 nM)),–,–,"Tyk 2 (pKi) (Tyk2): C (C represents a pKi value between 7 and 9 (Ki between 100 nM and 1 nM)); BEAS2B pIC50 [1, 5]: A (A represents a pEC50 value≥7.5 (EC50≤32 nM)); JAK 3 (pKi) (JAK3): C (C represents a pKi value between 7 and 9 (Ki between 100 nM and 1 nM)); THP-1 IL4 pIC50 [2, 11]: B (B represents a pEC50 value between 6.7 and 7.5 (EC50 between 200 nM and 32 nM))"
Cc1cc(Nc2cc3ncccc3c(N[C@@H]3C[C@H]4CC[C@@H](C3)N4S(=O)(=O)Cc3ccccc3)n2)n[nH]1 [Example 4-13],B (B represents a pKi value between 9 and 10 (Ki between 1 nM and 0.1 nM)),A (A represents a pEC50 value≥7.5 (EC50≤32 nM)),–,–,did not exhibit a statistically significant decrease,"THP-1 IL4 pIC50 [2, 8]: B (B represents a pEC50 value between 6.7 and 7.5 (EC50 between 200 nM and 32 nM))"
CCC(=O)N1[C@@H]2CC[C@H]1C[C@H](Nc1nc(Nc3cc(C)[nH]n3)cc3ncccc13)C2 [Example 2-1],–,–,–,31.6 to 200,did not exhibit a statistically significant decrease,"Ki (JAK1; [9]): 0.1 to 1 nM; IC50 [1, 10]: 31.6 to 200 nM"
Cc1cc(Nc2cc3ncccc3c(N[C@@H]3C[C@H]4CC[C@@H](C3)N4S(=O)(=O)C3CC3)n2)n[nH]1 [Example 4-4],–,–,–,< 31.6,did not exhibit a statistically significant decrease,"Ki (JAK1; [9]): 0.1 to 1 nM; IC50 [1, 10]: < 31.6 nM; Ki (JAK2): 0.1 to 1 nM"
Cc1cnc2cc(Nc3cc(C)[nH]n3)nc(N[C@@H]3C[C@H]4CC[C@@H](C3)N4CCC#N)c2c1 [Example 6-1],B (B represents a pKi value between 9 and 10 (Ki between 1 nM and 0.1 nM)),–,B (B represents a pKi value between 9 and 10 (Ki between 1 nM and 0.1 nM)),–,–,"Tyk 2 (pKi) (Tyk2): B (B represents a pKi value between 9 and 10 (Ki between 1 nM and 0.1 nM)); BEAS2B pIC50 [1, 5]: A (A represents a pEC50 value≥7.5 (EC50≤32 nM)); JAK 3 (pKi) (JAK3): C (C represents a pKi value between 7 and 9 (Ki between 100 nM and 1 nM)); THP-1 IL4 pIC50 [2, 11]: A (A represents a pEC50 value≥7.5 (EC50≤32 nM))"
Cc1cc(Nc2cc3nc(CO)ccc3c(N[C@@H]3C[C@H]4CC[C@@H](C3)N4CCC#N)n2)n[nH]1 [Example 5-11],–,B (B represents a pEC50 value between 6.7 and 7.5 (EC50 between 200 nM and 32 nM)),A (A represents a pKi value≥10 (Ki≤0.1 nM)),–,did not exhibit a statistically significant decrease,"THP-1 IL4 pIC50 [2, 8]: A (A represents a pEC50 value≥7.5 (EC50≤32 nM))"
Cc1cc(Nc2cc3ncccc3c(N[C@@H]3C[C@H]4CCC[C@@H](C3)N4C(=O)Cc3ccccc3)n2)n[nH]1 [Example 2-24],B (B represents a pKi value between 9 and 10 (Ki between 1 nM and 0.1 nM)),A (A represents a pEC50 value≥7.5 (EC50≤32 nM)),B (B represents a pKi value between 9 and 10 (Ki between 1 nM and 0.1 nM)),–,did not exhibit a statistically significant decrease,"THP-1 IL4 pIC50 [2, 8]: A (A represents a pEC50 value≥7.5 (EC50≤32 nM))"
"Cc1cc(Nc2cc3ncccc3c(N[C@@H]3C[C@H]4CCC[C@@H](C3)N4S(=O)(=O)N3CC(C#N)C3)n2)n[nH]1 [Example 11, 1-(((1R,3s,5S)-3-((7-((5-methyl-1H-pyrazol-3-yl)amino)-1,6-naphthyridin-5-yl)amino)-9-azabicyclo[3.3.1]nonan-9-yl)sulfonyl)azetidine-3-carbonitrile]",–,–,–,31.6 to 200,did not exhibit a statistically significant decrease,"IC50 [1, 10]: < 31.6 nM"
COC(=O)c1cnc2cc(Nc3cc(C)[nH]n3)nc(N[C@@H]3C[C@H]4CCC[C@@H](C3)N4CCC#N)c2c1 [Example 6-47],A (A represents a pKi value≥10 (Ki≤0.1 nM)),–,A (A represents a pKi value≥10 (Ki≤0.1 nM)),–,–,"Tyk 2 (pKi) (Tyk2): B (B represents a pKi value between 9 and 10 (Ki between 1 nM and 0.1 nM)); BEAS2B pIC50 [1, 5]: A (A represents a pEC50 value≥7.5 (EC50≤32 nM)); JAK 3 (pKi) (JAK3): B (B represents a pKi value between 9 and 10 (Ki between 1 nM and 0.1 nM)); THP-1 IL4 pIC50 [2, 11]: A (A represents a pEC50 value≥7.5 (EC50≤32 nM))"
Cc1cnc2cc(Nc3cc(C)[nH]n3)nc(N[C@@H]3C[C@H]4CC[C@@H](C3)N4S(C)(=O)=O)c2c1 [Example 6-5],–,–,A (A represents a pKi value≥10 (Ki≤0.1 nM)),< 31.6,–,"Ki (JAK1; [9]): 0.1 to 1 nM; Ki (Tyk2; read-out: Tyk 2 (pKi) (converted)): 0.1 to 1 nM; IC50 [1, 10]: < 31.6 nM; Ki (JAK3; read-out: JAK 3 (pKi) (converted)): 1 to 100 nM"
Cc1cc(Nc2cc3ncccc3c(N[C@@H]3C[C@H]4CCC[C@@H](C3)N4S(=O)(=O)C3CC3)n2)n[nH]1 [Example 4-18],A (A represents a pKi value≥10 (Ki≤0.1 nM)),A (A represents a pEC50 value≥7.5 (EC50≤32 nM)),–,–,did not exhibit a statistically significant decrease,"THP-1 IL4 pIC50 [2, 8]: A (A represents a pEC50 value≥7.5 (EC50≤32 nM))"
"COCCS(=O)(=O)N1[C@@H]2CC[C@H]1C[C@H](Nc1nc(Nc3cc(C)[nH]n3)cc3ncccc13)C2 [Example 6, N^5-((1R,3s,5S)-8-((2-methoxyethyl)sulfonyl)-8-azabicyclo[3.2.1]octan-3-yl)-N^7-(5-methyl-1H-pyrazol-3-yl)-1,6-naphthyridine-5,7-diamine]",–,–,–,–,statistically significant decrease,–

# Reference: US10072026B2, “Crystalline form of 3-((1R,3s,5S)-3-((7-((5-methyl-1H-pyrazol-3-yl)amino)-1,6-naphthyridin-5-yl)amino)-8-azabicyclo[3.2.1]octan-8-yl)propanenitrile” (priority 2015, dated 2018)
